Strand notation (5' to 3'): a small letter for the sugar, then the base; units joined by * are phosphorothioate-linked, units joined directly phosphodiester-linked; [ ] holds rarer units or linkages, { } end groups; capitals alone tell only the bases. k = constrained ethyl (cEt); [5mC] = 5-methylcytosine; d = 2'-deoxy (DNA)
Tested on: human SMAD7 mRNA
Assay: Antisense inhibition of human SMAD7 mRNA expression in Hep3B cells by 3-10-3 cEt gapmers, 10,000 nM, electroporation (Example 2)
Format: cell-based
Details: Hep3B cells, 10,000 nM antisense oligonucleotide, electroporation, approximately 24 hours, RT-PCR primer probe set RTS5062, relative to untreated control cells
How it was run: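 Hep3B cells (20,000 per well) were electroporated with 10,000 nM 16-mer 3-10-3 cEt gapmer (phosphorothioate, 5-methylcytosine). After about 24 h, SMAD7 mRNA was quantified by qRT-PCR with primer probe set RTS5062, normalised to RIBOGREEN total RNA, and expressed as percent inhibition versus untreated cells.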

First: 798842 (k[5mC]*kA*kG*d[5mC]*dT*dG*dA*d[5mC]*dT*d[5mC]*dT*dT*dG*kT*kT*kG; antisense) [compound 798842]
Second: 799912 (antisense k[5mC]*kT*k[5mC]*dA*dG*dA*dG*dG*dA*dA*dG*dG*dG*kT*kG*kG) [compound 799912]
The “% Inhibition” value of the first is lower: 0% for the first, 22% for the second.

Going from “798837 (kG*k[5mC]*kT*dG*dT*d[5mC]*d[5mC]*dG*dA*dG*dG*d[5mC]*dA*kA*kA*kA; antisense) [compound 798837]” to “799956 (antisense kT*k[5mC]*kT*d[5mC]*d[5mC]*dA*dG*d[5mC]*d[5mC]*dG*d[5mC]*dT*d[5mC]*kA*kG*kA) [compound 799956]”, the “% Inhibition” value rises from 33% to 57%.

With “798854 (kT*kA*k[5mC]*dA*d[5mC]*d[5mC]*d[5mC]*dA*d[5mC]*dA*d[5mC]*dA*d[5mC]*k[5mC]*kA*kT; antisense) [compound 798854]” the “% Inhibition” value was 25%.

Same assay, conditions: Hep3B cells, electroporation with 10,000 nM antisense oligonucleotide, approximately 24 hours, RTS5062, percent inhibition of SMAD7 mRNA relative to untreated control cells

Going from “799531 (k[5mC]*kT*kT*dT*dA*dG*d[5mC]*dA*dA*dT*dT*dT*d[5mC]*kA*kA*kA; antisense) [compound 799531]” to “799845 (antisense kG*kA*kA*dG*dT*dA*d[5mC]*d[5mC]*dT*dA*dG*dA*dG*kG*kA*kG) [compound 799845]”, the “% Inhibition” value falls from 32% to 31%.

Same assay, conditions: Hep3B cells, electroporation with 10,000 nM antisense oligonucleotide, approximately 24 hours, SMAD7 mRNA by RT-PCR (RTS5062), relative to untreated control cells

First: 830068 (kG*kT*kG*dA*dA*dA*dT*dG*dG*dT*dG*d[5mC]*dT*k[5mC]*kT*kG; antisense) [compound 830068]
Second: 798693 (antisense kG*k[5mC]*k[5mC]*dG*dG*dG*d[5mC]*dG*d[5mC]*dA*d[5mC]*dG*dG*k[5mC]*kT*k[5mC]) [compound 798693]
The “% Inhibition” value of the first is higher: 39% for the first, 0% for the second.

Compared with “830141 (antisense kG*kG*k[5mC]*dA*dT*dT*dA*dG*dA*dG*dA*d[5mC]*d[5mC]*kT*k[5mC]*kA) [compound 830141]”, “800085 (antisense kA*kG*k[5mC]*dA*dG*d[5mC]*d[5mC]*d[5mC]*dT*dG*dT*dA*d[5mC]*kA*k[5mC]*kA) [compound 800085]” is lower in “% Inhibition” value: 58% for the first, 37% for the second.

Compared with “830052 (kG*kA*kG*dT*dA*dA*d[5mC]*d[5mC]*dA*dG*d[5mC]*dT*dG*kT*k[5mC]*kT; antisense) [compound 830052]”, “799508 (antisense kG*k[5mC]*kA*dA*dT*dT*dA*dA*dA*dG*d[5mC]*dA*dA*kA*kA*k[5mC]) [compound 799508]” is lower in “% Inhibition” value: 35% for the first, 0% for the second.

Compared with “800005 (k[5mC]*k[5mC]*kG*d[5mC]*dA*d[5mC]*d[5mC]*d[5mC]*dA*dG*dA*d[5mC]*d[5mC]*k[5mC]*k[5mC]*kT; antisense) [compound 800005]”, “830199 (antisense kA*kA*kG*dG*d[5mC]*dT*dA*d[5mC]*dA*d[5mC]*d[5mC]*dA*dA*kA*kG*kA) [compound 830199]” is higher in “% Inhibition” value: 27% for the first, 37% for the second.

Compared with “799492 (antisense kA*kA*kA*d[5mC]*dA*dA*dT*dA*dG*dA*dG*dG*d[5mC]*kA*kG*kG) [compound 799492]”, “798903 (kA*kA*kG*dA*dT*dG*dA*d[5mC]*d[5mC]*dT*d[5mC]*dT*dA*kG*k[5mC]*k[5mC]; antisense) [compound 798903]” is lower in “% Inhibition” value: 58% for the first, 48% for the second.

First: 830022 (antisense kG*kG*k[5mC]*dT*dG*d[5mC]*dA*dG*dA*dG*dT*dA*dT*kG*kG*kG) [compound 830022]
Second: 799352 (kG*k[5mC]*kG*dG*dT*dG*dA*dT*dT*dG*d[5mC]*d[5mC]*dT*kT*kG*kA; antisense) [compound 799352]
The “% Inhibition” value of the first is higher: 59% for the first, 24% for the second.

For “830041 (antisense kT*k[5mC]*kA*d[5mC]*dT*dT*d[5mC]*d[5mC]*dT*dA*dT*dT*dG*kG*k[5mC]*kT) [compound 830041]”, the “% Inhibition” value was 56%.

Same assay, conditions: Hep3B cells, electroporation with 10,000 nM antisense oligonucleotide, approximately 24 hours, primer probe set RTS5062, relative to untreated control cells

Compared with “798725 (antisense kT*k[5mC]*kG*d[5mC]*dA*d[5mC]*d[5mC]*dG*d[5mC]*d[5mC]*dT*dT*dG*k[5mC]*k[5mC]*k[5mC]) [compound 798725]”, “799104 (antisense kA*kG*kT*d[5mC]*d[5mC]*dG*dG*dG*dA*dA*dA*dA*dA*k[5mC]*k[5mC]*kT) [compound 799104]” is higher in “% inhibition of SMAD7 mRNA expression” value: 29% for the first, 40% for the second.

First: 799052 (antisense k[5mC]*kT*kG*dT*dG*dG*dA*d[5mC]*dA*dG*dG*d[5mC]*d[5mC]*k[5mC]*kG*kT) [compound 799052]
Second: 798745 (antisense kG*k[5mC]*kA*dG*d[5mC]*dT*d[5mC]*d[5mC]*dA*dG*d[5mC]*dT*dG*k[5mC]*k[5mC]*kG) [compound 798745]
The “% inhibition of SMAD7 mRNA expression” value of the first is higher: 40% for the first, 0% for the second.

“772533 (antisense kT*kG*kA*dA*dG*dA*dA*dG*dT*d[5mC]*dG*dG*dG*k[5mC]*kG*k[5mC]) [compound 772533]” was tested, and the “% inhibition of SMAD7 mRNA expression” value was 31%.

Compared with “799141 (antisense kT*kT*kA*dT*dG*dA*d[5mC]*dG*dG*dA*d[5mC]*d[5mC]*dA*kA*kA*kT) [compound 799141]”, “799097 (antisense kA*kA*kA*d[5mC]*d[5mC]*dT*dG*dA*dT*dG*dT*d[5mC]*dA*k[5mC]*k[5mC]*kA) [compound 799097]” is lower in “% Inhibition” value: 47% for the first, 39% for the second.

For “799000 (antisense kG*k[5mC]*k[5mC]*dG*d[5mC]*dA*d[5mC]*dA*d[5mC]*dT*d[5mC]*dA*d[5mC]*kA*k[5mC]*kT) [compound 799000]”, the “% Inhibition” value was 42%.

Same assay, conditions: Hep3B cells, electroporation, 10,000 nM antisense oligonucleotide, approximately 24 hours, RTS5062, relative to untreated control cells

Compared with “799601 (kG*kA*kA*dT*dA*d[5mC]*dA*d[5mC]*dT*dG*d[5mC]*dA*d[5mC]*k[5mC]*kA*kA; antisense) [compound 799601]”, “799699 (antisense k[5mC]*kA*kA*dA*dA*d[5mC]*dA*dG*dT*dG*dG*dA*d[5mC]*k[5mC]*kA*kT) [compound 799699]” is higher in “% inhibition of SMAD7 mRNA expression” value: 48% for the first, 57% for the second.

First: 790710 (kG*kG*kG*dA*dA*dA*dT*dG*dT*dT*d[5mC]*dT*dA*k[5mC]*k[5mC]*kT; antisense) [compound 790710]
Second: 799794 (kA*kA*k[5mC]*d[5mC]*dA*d[5mC]*dA*dG*d[5mC]*dT*d[5mC]*d[5mC]*dT*kG*kT*kT; antisense) [compound 799794]
The “% inhibition of SMAD7 mRNA expression” value of the first is higher: 15% for the first, 0% for the second.

Compared with “799721 (antisense kG*kT*kA*dA*d[5mC]*dA*d[5mC]*dA*d[5mC]*dA*dG*d[5mC]*dA*kG*kA*kA) [compound 799721]”, “799717 (antisense kG*k[5mC]*kA*dG*dG*d[5mC]*dT*dA*d[5mC]*d[5mC]*dA*dG*d[5mC]*k[5mC]*kT*kT) [compound 799717]” is lower in “% inhibition of SMAD7 mRNA expression” value: 42% for the first, 0% for the second.

Same assay, conditions: SMAD7 mRNA, Hep3B cells, 10,000 nM antisense oligonucleotide, electroporation, approximately 24 hours, primer probe set RTS5062, relative to untreated control cells

First: 829778 (antisense kG*kG*kA*dG*d[5mC]*dG*dA*dG*dT*dA*dG*dG*dA*k[5mC]*kG*kA) [compound 829778]
Second: 829784 (antisense kA*kG*kA*dT*d[5mC]*d[5mC]*dG*dG*d[5mC]*d[5mC]*dA*d[5mC]*d[5mC]*kT*kG*kA) [compound 829784]
The “% Inhibition” value of the first is higher: 46% for the first, 32% for the second.

Compared with “801003 (antisense kG*kA*kA*dT*d[5mC]*dA*dA*dG*d[5mC]*d[5mC]*d[5mC]*dT*dG*kG*k[5mC]*kT) [compound 801003]”, “790693 (k[5mC]*kA*kA*dA*dG*dT*dA*dT*dA*d[5mC]*d[5mC]*dT*dG*kT*kT*k[5mC]; antisense) [compound 790693]” is higher in “% Inhibition” value: 38% for the first, 45% for the second.

Same assay, conditions: SMAD7 mRNA, Hep3B cells, electroporation with 10,000 nM antisense oligonucleotide, approximately 24 hours, primer probe set RTS5062, relative to untreated control cells

For “829902 (antisense k[5mC]*kA*kG*d[5mC]*dA*d[5mC]*dG*dG*dG*d[5mC]*dA*dG*d[5mC]*kT*kG*k[5mC]) [compound 829902]”, the “% Inhibition” value was 0%.
